This test relates to Cholesterol Synthesis. The experiment in a line: AICS screen: inhibition of cholesterol synthesis in rats (plasma [14C]cholesterol after sodium [1-14C]-acetate). It is filed as in vivo. To be noted: single dose, oral gavage, male Sprague-Dawley rats fed 5% cholestyramine, acetate one hour after drug, blood after 50 minutes; for change in vivo at 1 mg/kg / change in vivo at 1.5 mg/kg: Rattus norvegicus, 50 min. Here is the method: The ability of compounds of the present invention to inhibit the biosynthesis of cholesterol was also measured by a method (designated AICS screen) which utilizes the procedure described by A. W. Alberts et al, Proc. Natl. Acad. Sci., (1980), 77, pp 3957-3961.
In this method male Sprague-Dawley rats (200 g body weight) previously fed 5% cholestyramine for three days were randomly divided into groups (N=5/group) and given a single dose of vehicle (controls) or compound by an oral gavage at the indicated doses. One hour after drug dosing, all rats were injected intraperitoneally with sodium[1-^14 C]-acetate (18.75 μCi/rat in 0.2 ml saline). After 50 minutes, blood samples were taken, plasma obtained by centrifugation, and plasma [^14 C]cholesterol measured after saponification and extraction.

Structures can show the parent of a compound that is named as a salt.

For the compound `Cc1cc(-c2ccc(F)cc2)c(/C=C/[C@@H](O)C[C@@H](O)CC(=O)O)c(C(C)C)n1` (relative stereo) [Example 21, [R*,S*-(E)]-7-[4-(4-fluorophenyl)-6-methyl-2-(1-methylethyl)-3-pyridinyl]-3,5-dihydroxy-6-heptenoic acid, hemicalcium salt], the change in vivo at 1 mg/kg (1.0 mg/kg) is -67%.

As to `CCOC(=O)c1c(C)nc(C)c(/C=C/[C@@H]2C[C@@H](O)CC(=O)O2)c1-c1ccc(F)cc1` (relative stereo) [Example 11, [4α,6β-(E)]-4-(4-fluorophenyl)-2,6-dimethyl-5-[2-(tetrahydro-4-hydroxy-6-oxo-2H-pyran-2-yl)ethenyl]-, ethyl ester, 3-pyridinecarboxylic acid], the change in vivo at 1.5 mg/kg is -41%.

Regarding `COc1c(C)nc(C(C)C)c(/C=C/[C@@H]2C[C@@H](O)CC(=O)O2)c1-c1ccc(F)cc1` (relative stereo) [Example 38, [4α,6β(E)]-6-[2-[4-(4-fluorophenyl)-5-methoxy-6-methyl-2-(1-methylethyl)-3-pyridinyl]ethenyl]tetrahydro-4-hydroxy-2H-pyran-2-one], for the setting “1.0 mg/kg”, the change in vivo at 1 mg/kg was -67%.

`Cc1cc(-c2ccc(F)cc2)c(/C=C/[C@@H]2C[C@@H](O)CC(=O)O2)c(C(F)(F)F)n1` (relative stereo) [Example 22, [4α,6β(E)]-6-[2-[4-(4-fluorophenyl)-6-methyl-2-(trifluoromethyl)-3-pyridinyl]ethenyl]tetrahydro-4-hydroxy-2H-pyran-2-one]: the change in vivo at 1 mg/kg (1.0 mg/kg) was -59%.

Take `CCCNC(=O)c1c(C(C)C)nc(C(C)C)c(/C=C/C2CC(O)CC(=O)O2)c1-c1ccc(F)cc1` (stereo not drawn) [Example 32, [2α,4α(E)]-4-(4-fluorophenyl)-2,6-bis(1-methylethyl)-n-propyl-5-[2-(tetrahydro-4-hydroxy-6-oxo-2H-pyran-2-yl)ethenyl]-3-pyridinecarboxamide]: the “% Inhibition of Cholesterol Synthesis” value (1.0 mg/kg) is -25%.

With `COC(=O)c1c(C(C)C)nc(C)c(/C=C/[C@@H]2C[C@@H](O)CC(=O)O2)c1-c1ccc(F)cc1` (relative stereo) [Example 9], the change in vivo at 1.5 mg/kg is -55%.

Consider `CCc1cc(-c2ccc(F)cc2)c(/C=C/[C@@H]2C[C@@H](O)CC(=O)O2)c(CC)n1` (relative stereo) [Example 26, [4α,6β(E)]-6-[2-[2,6-diethyl-4(4-fluorophenyl)-3-pyridinyl]ethenyl]tetrahydro-4-hydroxy-2H-pyran-2-one], for which, for the setting “1.0 mg/kg”, the change in vivo at 1 mg/kg was -60%.

For the compound `CCc1nc(CC)c(CO)c(-c2ccc(F)cc2)c1/C=C/[C@@H]1C[C@@H](O)CC(=O)O1` (relative stereo) [Example 36], the change in vivo at 1 mg/kg (1.0 mg/kg) was -68%.

For the compound `Cc1cc(-c2ccc(F)cc2)c(/C=C/[C@@H]2C[C@@H](O)CC(=O)O2)c(C(C)C)n1` (relative stereo) [Example 19, [4α,6β(E)]-6-[2-[4-(4-fluorophenyl)-6-methyl-2-(1-methylethyl)-3-pyridinyl]ethenyl]tetrahydro-4-hydroxy-2H-pyran-2-one], the change in vivo at 1 mg/kg (1.0 mg/kg) is -72%.

Take `CC(C)c1nc(-c2ccccc2)cc(-c2ccc(F)cc2)c1/C=C/[C@@H]1C[C@@H](O)CC(=O)O1` (relative stereo) [Example 30, [4α,6β(E)]-6-[2-[4-(4-fluorophenyl)-2-(1-methylethyl)-6-phenyl-3-pyridinyl]ethenyl]tetrahydro-4-hydroxy-2H-pyran-2-one]: the change in vivo at 1 mg/kg (1.0 mg/kg) is -64%.

`Cc1cc(C)c(/C=C/[C@@H]2C[C@@H](O)CC(=O)O2)c(-c2ccc(F)cc2)n1` (relative stereo) [Example 28, [4α,6β(E)]-6-[2-[2-(4-fluorophenyl)-4,6-dimethyl-3-pyridinyl]ethenyl]tetrahydro-4-hydroxy-2H-pyran-2-one]: the change in vivo at 1.5 mg/kg was -64%.

As to `CCc1nc(CC)c(C(=O)OC)c(-c2ccc(F)cc2)c1/C=C/[C@@H]1C[C@@H](O)CC(=O)O1` (relative stereo) [Example 34, [2α,4β(E)]-2,6-diethyl-4-(4-fluorophenyl)-5-[2-(tetrahydro-4-hydroxy-6-oxo-2H-pyran-2-yl)ethenyl]-3-pyridinecarboxylic acid, methyl ester], the change in vivo at 1 mg/kg (1.0 mg/kg) is -57%.

As to `Cc1cc(-c2ccc(F)cc2)c(/C=C/[C@@H]2C[C@@H](O)CC(=O)O2)c(C(C)C)[n+]1[O-]` (relative stereo) [Example 42, 4α,6β(E)-6-[2-[4-(4-fluorophenyl)-6-methyl-2-(1-methylethyl)-3-pyridinyl]ethenyl]tetrahydro-4-hydroxy-2H-pyran-2-one, N-oxide], where the note is “1.0 mg/kg”, the change in vivo at 1 mg/kg was -69%.

For `CC(C)c1cc(-c2ccc(F)cc2)c(/C=C/[C@@H]2C[C@@H](O)CC(=O)O2)c(C(C)C)n1` (relative stereo) [Example 15], the change in vivo at 1 mg/kg (1.0 mg/kg) is -55%.

The values above are taken from patent US4906624A, “6-(((Substituted)pyridin-3-yl)alkyl)-and alkenyl)-tetrahydro-4-hydroxypyran-2-one inhibitors of cholesterol biosynthesis” (Warner-Lambert Company, priority 1988, dated 1990).
